Data from US8822698B2, “Aminoacid derivatives, their process of preparation and their therapeutical uses as inhibitors of oncogenic signals by the Met family” (Universite D'Aix-Marseille, priority 2009, dated 2014).

How the values were obtained:
Experiment in all cases: NCI 60 human tumour cell line screen
Format in all cases: cell-based
SF-268 = settings: conc. 10^−5M; SF-268, CNS Cancer
Source text: (§1) Compound of example 4 was screened in the NCI 60 human tumour cell line anticancer drug screen (Shoemaker et al Nature reviews 6, 2006, 813-823).

U251 = settings: conc. 10^−5M; U251, CNS Cancer
Source text: as §1

OVCAR-5 = settings: conc. 10^−5M; OVCAR-5, Ovarian Cancer
Source text: as §1

NCl-H23 = settings: conc. 10^−5M; NCl-H23, Non-Small Cell Lung Cancer
Source text: as §1

LOX IMVI = settings: conc. 10^−5M, Melanoma
Source text: as §1

MCF7 = settings: conc. 10^−5M; MCF7, Breast Cancer
Source text: as §1

UACC-257 = settings: conc. 10^−5M; UACC-257, Melanoma
Source text: as §1

A549/ATCC = settings: conc. 10^−5M, Non-Small Cell Lung Cancer
Source text: as §1

RXF 393 = settings: conc. 10^−5M; RXF 393, Renal Cancer
Source text: as §1

A498 = settings: conc. 10^−5M; A498, Renal Cancer
Source text: as §1

UO-31 = settings: conc. 10^−5M; UO-31, Renal Cancer
Source text: as §1

K-562 = settings: conc. 10^−5M; K-562, Leukemia
Source text: as §1

EKVX = settings: conc. 10^−5M, Non-Small Cell Lung Cancer
Source text: as §1

NCl-H460 = settings: conc. 10^−5M; NCl-H460, Non-Small Cell Lung Cancer
Source text: as §1

SN12C = settings: conc. 10^−5M, Renal Cancer
Source text: as §1

M14 = settings: conc. 10^−5M; M14, Melanoma
Source text: as §1

TK-10 = settings: conc. 10^−5M; TK-10, Renal Cancer
Source text: as §1

UACC-62 = settings: conc. 10^−5M; UACC-62, Melanoma
Source text: as §1

SK-MEL-2 = settings: conc. 10^−5M; SK-MEL-2, Melanoma
Source text: as §1

SW-620 = settings: conc. 10^−5M; SW-620, Colon Cancer
Source text: as §1

HCC-2998 = settings: conc. 10^−5M; HCC-2998, Colon Cancer
Source text: as §1

HCT-116 = settings: conc. 10^−5M; HCT-116, Colon Cancer
Source text: as §1

IGROV 1 = settings: conc. 10^−5M; IGROV 1, Ovarian Cancer
Source text: as §1

BT-549 = settings: conc. 10^−5M; BT-549, Breast Cancer
Source text: as §1

SK-MEL-5 = settings: conc. 10^−5M; SK-MEL-5, Melanoma
Source text: as §1

NCl•H226 = settings: conc. 10^−5M; NCl•H226, Non-Small Cell Lung Cancer
Source text: as §1

SK-MEL-28 = settings: conc. 10^−5M; SK-MEL-28, Melanoma
Source text: as §1

DU-145 = settings: conc. 10^−5M; DU-145, Prostate Cancer
Source text: as §1

SK-OV-3 = settings: conc. 10^−5M; SK-OV-3, Ovarian Cancer
Source text: as §1

SR = settings: conc. 10^−5M, Leukemia
Source text: as §1

HS 578T = settings: conc. 10^−5M, Breast Cancer
Source text: as §1

HL-60(TB) = settings: conc. 10^−5M, Leukemia
Source text: as §1

NCl-H322M = settings: conc. 10^−5M, Non-Small Cell Lung Cancer
Source text: as §1

NCl/ADR-RES = settings: conc. 10^−5M, Ovarian Cancer
Source text: as §1

HOP-62 = settings: conc. 10^−5M; HOP-62, Non-Small Cell Lung Cancer
Source text: as §1

CCRF-CEM = settings: conc. 10^−5M, Leukemia
Source text: as §1

PC-3 = settings: conc. 10^−5M; PC-3, Prostate Cancer
Source text: as §1

KM12 = settings: conc. 10^−5M; KM12, Colon Cancer
Source text: as §1

MDA-MB-435 = settings: conc. 10^−5M; MDA-MB-435, Melanoma
Source text: as §1

SF-539 = settings: conc. 10^−5M; SF-539, CNS Cancer
Source text: as §1

COLO 205 = settings: conc. 10^−5M; COLO 205, Colon Cancer
Source text: as §1

O=C(Cc1cc(C(F)(F)F)cc(C(F)(F)F)c1)N[C@@H](Cc1ccccc1)C(=O)Nc1ccc(-c2cn3c(n2)sc2ccccc23)cc1 [Example 4, (S)-2-(3,5-bis(trifluoromethyl)phenylacetamido)-3-phenyl-N-[4-(imidazo[2,1-b]benzothiazol-2-yl)phenyl]propanamide]
Growth Percent (SF-268): 29.28%
Growth Percent (U251): 34.24%
Growth Percent (OVCAR-5): 97.36%
Growth Percent (NCl-H23): 39.55%
Growth Percent (LOX IMVI): 26.60%
Growth Percent (MCF7): 59.09%
Growth Percent (UACC-257): 55.20%
Growth Percent (A549/ATCC): 31.71%
Growth Percent (RXF 393): 47.02%
Growth Percent (A498): 120.10%
Growth Percent (UO-31): 67.05%
Growth Percent (K-562): 63.10%
Growth Percent (EKVX): 15.48%
Growth Percent (NCl-H460): −16.59%
Growth Percent (SN12C): 47.40%
Growth Percent (M14): 30.58%
Growth Percent (TK-10): 61.11%
Growth Percent (UACC-62): 69.45%
Growth Percent (SK-MEL-2): 45.85%
Growth Percent (SW-620): 12.13%
Growth Percent (HCC-2998): 98.28%
Growth Percent (HCT-116): 21.40%
Growth Percent (IGROV 1): 13.32%
Growth Percent (BT-549): 82.05%
Growth Percent (SK-MEL-5): 10.83%
Growth Percent (NCl•H226): 90.93%
Growth Percent (SK-MEL-28): 26.28%
Growth Percent (DU-145): 70.37%
Growth Percent (SK-OV-3): 96.62%
Growth Percent (SR): 58.33%
Growth Percent (HS 578T): 16.75%
Growth Percent (HL-60(TB)): 79.95%
Growth Percent (NCl-H322M): 28.70%
Growth Percent (NCl/ADR-RES): 43.07%
Growth Percent (HOP-62): 80.02%
Growth Percent (CCRF-CEM): 32.94%
Growth Percent (PC-3): 38.29%
Growth Percent (KM12): 16.15%
Growth Percent (MDA-MB-435): 54.92%
Growth Percent (SF-539): 36.76%
Growth Percent (COLO 205): 71.04%
